{
  "source": "patent US8440695B2",
  "about": "(St Jude Children's Research Hospital, priority 2005, dated 2013)",
  "key": {"[1]": {"tested_on": "subjects with the metabolic syndrome", "experiment": "Fasting lipids and lipoproteins in subjects with the metabolic syndrome", "format": "in vivo, human", "settings": "for Total Cholesterol / HDL cholesterol / LDL cholesterol / Triglycerides: 3 weeks; for Total Cholesterol: average of two subjects, placebo 206; for HDL cholesterol: placebo 47; for LDL cholesterol: placebo 132; for Triglycerides: placebo 139"}, "ATM^+/+ apoE^−/− mice": {"tested_on": "ATM^+/+ apoE^−/− mice", "experiment": "Atherosclerosis by the en face technique in Western diet-fed mice", "format": "in vivo, mouse", "settings": "7 mg/kg/week i.p., 8 weeks Western diet, vs saline", "quoted_text": "Atherosclerosis was measured using the en face or aortic origin technique. For the former, pinned aortas were imaged with a digital camera and analyzed by using an image-processing program. The percentage of involvement of the intimal surface area is reported for the arch (encompassing the surface from the aortic valve to the left subclavian artery), the thoracic aorta (extending to the final intercostal artery), and the abdominal aorta (to the ileal bifurcation). For the aortic origin technique, mean lesion size for each animal was quantified by the degree of lipid staining of cross-sections of aortic tissue as described. Anesthetized mice were exsanguinated, the heart and aortic arch were perfused, then tissues were removed en bloc and frozen immediately in tissue freeze medium. For each sample, 64 sections were made on a cryostat beginning just caudal to the aortic sinus and extending into the proximal aorta at 10 μm intervals. Slides were fixed with 60% isopropanol and stained with Oil Red O. For each heart, lesions in eight sections at 80 μm intervals were quantified using image analysis software calibrated using a hemocytometer grid.\n(§5) The mice were then fed the Western-type diet as described.\nThe quantification of aortic lesions involved cleaning the aortas and pinning them on a wax matrix with the intimal surface facing upward (en face). Images were captured with a digital camera, edited for artifacts, and data were reported as the percent involvement of the arch (encompassing the surface from the aortic valve to the left subclavian artery), thoracic aorta (extending to the last intercostal artery), and abdominal aorta (to the ileal bifurcation). At the time of isolation, hearts were embedded in optical coherence tomography (OCT) media and frozen to permit quantification of lesion formation by staining of serial cryostat-cut sections of the aortic sinus, if necessary."}, "[2]": {"tested_on": "ATM^+/+apoE^−/− and ATM^−/−apoE^−/− mice", "experiment": "Intraperitoneal glucose tolerance test in Western diet-fed mice", "format": "in vivo, mouse", "quoted_text": "For glucose tolerance and insulin tolerance tests, mice were fasted and injected with 10% D-glucose (1 g/kg) or human regular insulin (0.75 units/kg body weight, Eli Lilly and Co., Indianapolis, Ind.) in procedures separated by at least one week. Tail vein blood (5-10 µl) was assayed for glucose at 0, 30, 60, and 120 minutes. Blood glucose was assayed using a glucose meter (Hemocue, Mission Viejo, Calif. or Becton Dickinson, San Jose, Calif.). The area under the glucose and insulin curves (AUC) during the OGTT and ITT were calculated using the formula: 0.25 (fasting value)+0.5 (½ h value)+0.75 (1 h value)+0.5 (2 h value).\nThe glucose tolerance and insulin tolerance tests were performed on mice that were fasted for 12 hours and then injected with 10% D-glucose (1 g/kg) or human regular insulin (0.75 units/kg body weight, Eli Lilly and Co., Indianapolis, Ind.) in procedures separated by at least one week. Tail vein blood (5-10 μl) was assayed for glucose at 0, 30, 60, and 120 minutes. Blood glucose was assayed using a glucose meter (Hemocue, Mission Viejo, Calif.). The area under the glucose and insulin curves (AUC) during the OGTT and ITT were calculated using the formula: 0.25 (fasting value)+0.5 (½ h value)+0.75 (1 h value)+0.5 (2 h value), as described by Haffner et al., N. Engl.\nas §5"}, "[3]": {"tested_on": "subjects with the metabolic syndrome", "experiment": "Hyperinsulinemic-euglycemic clamp in subjects with the metabolic syndrome", "format": "in vivo, human", "experimental": "(§1) Glucose and insulin tolerance tests are generally performed using D-glucose (1 g/kg) and insulin (0.75 U/kg), which are administered in separate procedures followed by serial measurements of blood glucose. If necessary, an oral glucose tolerance test (OGTT) will be performed the day after completing the clamp. After an overnight fast, an intravenous catheter will be placed, baseline labs will be obtained, 75 g of glucose will be consumed, and blood glucose, insulin, C peptide, and glucagon will be determined every half hour for 2 hours.\nTwo subjects with the metabolic syndrome have completed the protocol. The mean glucose infusion rate to maintain euglycemia (90 mg/dl) at steady state during the first stage of the clamp (using an insulin infusion rate of 15 mU/m^2/min) for these two subjects was determined.\nClamps are performed with infusion of stable isotope-labeled glucose to allow the determination of both glucose disposal rates and hepatic glucose output during hyperinsulinemic-euglycemic clamps in subjects with the metabolic syndrome. The results are presented as the mean for two subjects."}, "ATM [4]": {"molecular_target": "T1, ATM (Homo sapiens, UniProt Q13315)", "experiment": "Activated ATM (Ser1981P-ATM Western blot) in monocytes of treated subjects", "format": "in vivo", "parameters": "lysates were immunoprecipitated using a total ATM antibody (D1611); endogenous in cells; host or cells: adherent peripheral blood monocytes from human subjects with metabolic syndrome", "experimental": "Anticoagulated blood was added to commercially available tubes containing Histopaque, and mononuclear cells were collected after centrifugation. These cells were subjected to a brief second spin using a discontinuous sucrose gradient to remove platelets (which can interfere with the adherence of monocytes to culture dishes), then the mononuclear cells were placed in tissue culture dishes. Two hours later, lymphocytes were washed away, and adherent monocytes were collected and frozen in appropriate media so that cells from different limbs of the protocol can subsequently be studied in the same assays. […] For activated ATM determinations, lysates were immunoprecipitated using a total ATM antibody (D1611). The immunoprecipitated samples were blotted for activated ATM using a monoclonal antibody recognizing Ser1981P-ATM. The gels included a positive control of 293 cells treated with camptothecin. Total lysates were used to blot activated p53 using a polyclonal antibody to Ser15P-p53 (cell signaling). To confirm the p53 data, total lysates were tested using an ELISA-based p53 DNA binding assay (TransAM p53 activity assay from Active Motif)."}, "lipoprotein lipase (LPL)": {"tested_on": "lipoprotein lipase (LPL)", "experiment": "LPL enzyme activity in peritoneal macrophages from treated mice", "format": "in vivo, mouse", "settings": "ATM^+/+ mice treated systemically, vs saline", "quoted_text": "For LPL assays, cells were fed on day 6. On day 7, cells were washed and incubated in DMEM plus 0.5% BSA for 4 hr, followed by incubation with 10 U/ml heparin, collection of media, and subsequent determination of LPL activity as described (Coleman et al., 1995; J. Biol. Chem. 270:12518-12525).\nBriefly, lipoprotein lipase (LPL) enzyme activity is determined by measuring the release of labeled fatty acids from a triolein emulsion in macrophages. Cells were fed on day 6. On day 7, cells were washed and incubated in DMEM plu 0.5% BSA for 4 hours, followed by incubation with 10 U/ml heparin, collection of media, and subsequent determination of LPL activity as described by Coleman et al., J. Biol. Chem., 1995, 270:12518-12525. Macrophages from the same sources were used in the assays."}, "[5]": {"experiment": "Body weight, metabolic rate (indirect calorimetry) and fasting serum lipids in mice", "format": "in vivo, mouse", "settings": "ATM^+/+ apoE^−/− mice, 7 mg/kg/week, 4 and 8 weeks Western diet", "quoted_text": "as §5\nAll of these experiments were performed using ATM^+/+ apoE^−/− littermate mice beginning at the age of 8 weeks.\nSerum is generally obtained after a four hour fast and assayed for routine chemistries (glucose, triglycerides, cholesterol, and non-esterified fatty acids) using an automated plate reader connected to a computer, as described by Li et al., Nat."}, "ob/ob mice": {"tested_on": "ob/ob mice", "experiment": "Blood glucose and fasting insulin in ob/ob mice", "format": "in vivo, mouse", "experimental": "(§2) Two month old male db/db (Lepr^db; LEPR-deficient mice having excess adiposity) mice and ob/ob (Lep^ob, genetically obese) mice were purchased from Harlan (Indianapolis, Ind.) and the Jackson Laboratory, respectively.\n(§3) Blood glucose in male db/db mice were treated with either CHQ or saline. Baseline represents the average fed blood glucose levels of the 12 db/db mice."}, "[6]": {"tested_on": "subjects with the metabolic syndrome", "experiment": "Ambulatory blood pressure, glucose tolerance test and body weight in subjects with the metabolic syndrome", "format": "in vivo, human", "settings": "two subjects", "experimental": "as §1"}, "retina": {"tested_on": "retina", "settings": "several groups; cited from earlier work"}, "ATM [7]": {"molecular_target": "T1, ATM", "experiment": "ATM activation in cultured cells", "format": "cell-based", "parameters": "endogenous in cells", "settings": "low concentrations", "description": "(§4) However, low level activation of ATM as detected with an antibody that recognizes serine phosphorylation at residue 1981, may also be used in the assay."}, "[8]": {"tested_on": "ApoE-null model mice lacking a single allele of ATM", "experiment": "ApoE-null mice lacking a single allele of ATM on high fat diet, chloroquine treatment", "format": "in vivo, mouse", "settings": "7 mg/kg per week"}, "db/db mice": {"tested_on": "db/db mice", "experiment": "Fed blood glucose in db/db mice", "format": "in vivo, mouse", "settings": "male db/db mice, vs baseline and saline", "experimental": "as §2, §3"}, "[9]": {"tested_on": "patients with type 2 diabetes", "settings": "cited from earlier work"}, "[10]": {"tested_on": "ATM^+/+ apoE^−/− and ATM^−/− apoE^−/− mice", "experiment": "Tail-cuff systolic and diastolic blood pressure in Western diet-fed mice", "format": "in vivo, mouse", "settings": "7 mg/kg/week, 8 weeks Western diet, vs saline", "quoted_text": "Systolic blood pressure (SBP) and diastolic blood pressure (DBP) were measured after 8 weeks of Western diet feeding in ATM^+/+, ATM^+/−, and ATM^−/− mice. […] A plethysmography device (such as those supplied by Kent Scientific, Litchfield, Conn.) was used for tail cuff blood pressure determinations in acclimated, warmed mice performed by a technician blinded to treatment status, according to the manufacturer's instructions. Results were reported as the mean of 5-8 measurements on each day of 3 consecutive days.\nSystolic and diastolic blood pressures were measured over several days in conscious mice using a tail-cuff system (Kent Scientific, Litchfield, Conn.) as described (Bernal-Mizrachi et al., 2003; Nat. Med. 9:1069-1075). Animals were habituated to the blood pressure apparatus for several days before data were collected. Five to eight measurements were recorded for each mouse at each of three daily sessions. Results are presented as the mean of those measurements on consecutive days."}, "p53": {"tested_on": "p53", "settings": "low dose chloroquine, 3.5 mg/kg per injection i.p.", "description": "as §4"}, "JNK": {"tested_on": "JNK", "experiment": "Phospho-JNK ELISA in cultured aortic smooth muscle cells after antisense transfection", "format": "cell-based, mouse", "settings": "aortic smooth muscle cells from ATM^+/+apoE^−/− mice, 1.4 μmol/L, 72 hours", "experimental": "When cultured aortic smooth muscle cells were treated with a morpholino antisense oligonucleotide to ATM, JNK activity was increased, providing direct evidence that interfering with ATM expression induces JNK activity, a mediator of insulin resistance. Analysis of phospho-JNK in vascular smooth muscle cells cultured from ATM^+/+apoE^−/− mice. Primary aortic smooth muscle cells were transfected with an anti-ATM oligonucleotide, or a control oligonucleotide or the vehicle ethoxylated polyethylenimine solution only. Cells were assayed by ELISA for phospho-JNK and total JNK as measured in U/ml/well of a 96-well plate. […] Increased expression of phospho-JNK was detected in tissues involved in systemic insulin action in all three ATM genotypes in apoE^−/− mice, as determined by analysis of Western blots for fat, skeletal muscle and liver. Comparisons were made between ATM-deficient and ATM wild-type animals.\nMost of the mass of the aorta is composed of smooth muscle cells. Smooth muscle cells were cultured from the aortas of apoE^−/− mice by the explant technique as described by Weng et al., Proc. Natl. Acad. Sci. USA, 2003, 100:6730-6735. […] Successful transfection was confirmed by fluorescence microscopy and phospho-JNK and total JNK were assayed 72 hours later using a cell-based ELISA kit. […]"}, "[11]": {"settings": "80 mg/day for three weeks, two subjects"}, "[12]": {"settings": "80 mg/day, first stage of clamp, mean of two subjects"}, "[13]": {"settings": "1000 mg/day for three days (Powrie et al.)"}},
  "note": "“Also recorded” adds a separate entry of the source.",
  "data": [
    {"compound": "CCN(CC)CCCC(C)Nc1ccnc2cc(Cl)ccc12", "note": "(stereo not shown) [chloroquine, N4-(7-Chloro-4-quinolinyl)-N1,N1-diethyl-1,4-pentanediamine]", "values": [
      {"measurement": "decrease in LDL cholesterol", "setting": "[1]; [11]", "value": 25, "unit": "%"},
      {"measurement": "decrease in total cholesterol", "setting": "[1]; [11]", "value": 17, "unit": "%"},
      {"measurement": "decrease in triglycerides", "setting": "[1]; [11]", "value": 10, "unit": "%"},
      {"measurement": "Total Cholesterol", "setting": "[1]; chloroquine 80 mg/day", "value": 172, "unit": "mg/dL"},
      {"measurement": "HDL cholesterol", "setting": "[1]; chloroquine 80 mg/day", "value": 47, "unit": "mg/dL"},
      {"measurement": "LDL cholesterol", "setting": "[1]; chloroquine 80 mg/day", "value": 100, "unit": "mg/dL"},
      {"measurement": "Triglycerides", "setting": "[1]; chloroquine 80 mg/day", "value": 125, "unit": "mg/dL"},
      {"measurement": "Total Cholesterol", "setting": "[1]; chloroquine 250 mg/day", "value": 169, "unit": "mg/dL"},
      {"measurement": "HDL cholesterol", "setting": "[1]; chloroquine 250 mg/day", "value": 51, "unit": "mg/dL"},
      {"measurement": "LDL cholesterol", "setting": "[1]; chloroquine 250 mg/day", "value": 99, "unit": "mg/dL"},
      {"measurement": "Triglycerides", "setting": "[1]; chloroquine 250 mg/day", "value": 129, "unit": "mg/dL"},
      {"measurement": "decrease of atherosclerosis (lesion area) at the abdominal aorta", "setting": "ATM^+/+ apoE^−/− mice", "value": 25, "unit": "%"},
      {"measurement": "decrease of atherosclerosis (lesion area) at the arch", "setting": "ATM^+/+ apoE^−/− mice", "value": 37, "unit": "%"},
      {"measurement": "decrease of atherosclerosis (lesion area) at the thoracic aorta", "setting": "ATM^+/+ apoE^−/− mice", "value": 25, "unit": "%"},
      {"measurement": "glucose tolerance", "setting": "[2]; ATM^+/+ apoE^−/− mice, 7 mg/kg/week, 8 weeks Western diet, vs saline", "value": "improved"},
      {"measurement": "glucose tolerance", "setting": "[2]; ATM^−/−apoE^−/− mice, Western diet", "value": "not"},
      {"measurement": "increase in glucose infusion rate compared to placebo", "setting": "[3]; 80 mg dose, second stage of clamp (insulin 40 mU/m^2/min)", "value": 23, "unit": "%"},
      {"measurement": "increase in glucose infusion rate to maintain the blood glucose", "setting": "[3]; 80 mg per day oral, 3 weeks, first stage of clamp (insulin 15 mU/m^2/min), mean of two subjects", "value": 63, "unit": "%"},
      {"measurement": "decrease of hepatic glucose production", "setting": "[3]; [12]", "value": 58, "unit": "%"},
      {"measurement": "increase of glucose disposal in peripheral tissues", "setting": "[3]; [12]", "value": 62, "unit": "%"},
      {"measurement": "glucose infusion rate effect", "setting": "[3]; 250 mg dose, clamp first and second stage", "value": "blunted effect"},
      {"measurement": "ATM activation", "setting": "ATM [4]; 80 mg/day dose", "value": "greater activation"},
      {"measurement": "ATM activation", "setting": "ATM [4]; 250 mg/day dose", "value": "blunted effect"},
      {"measurement": "activation of ATM in monocytes", "setting": "ATM [4]; three weeks of 80 mg/day or 250 mg/day, none with placebo", "value": "activation; also recorded: activated"},
      {"measurement": "LPL enzyme activity in peritoneal macrophages", "setting": "lipoprotein lipase (LPL)", "value": "decreased"},
      {"measurement": "serum lipids (fasting cholesterol, triglycerides, NEFA)", "setting": "[5]", "value": "no effect"},
      {"measurement": "fasting insulin levels", "setting": "ob/ob mice; 7 mg/kg/week, saline 16,810±1,120, P<0.05", "value": "13,360±1996 pg/ml"},
      {"measurement": "fasting glucose levels", "setting": "ob/ob mice; 3 weeks after initiation, vs baseline and saline", "value": "lowered"},
      {"measurement": "fed glucose levels", "setting": "ob/ob mice; vs baseline and saline", "value": "lowered"},
      {"measurement": "ambulatory blood pressures (systolic, diastolic, mean arterial)", "setting": "[6]", "value": "did not appear to be affected"},
      {"measurement": "cumulative doses with no effects (retinopathy)", "setting": "retina", "value": 300, "unit": "grams"},
      {"measurement": "ATM activation in cultured cells", "setting": "ATM [7]", "value": "activates"},
      {"measurement": "atherosclerosis", "setting": "[8]", "value": "significantly reduced"},
      {"measurement": "central adiposity", "setting": "[8]", "value": "significantly reduced"},
      {"measurement": "glucose intolerance", "setting": "[8]", "value": "significantly reduced"},
      {"measurement": "hypertension", "setting": "[8]", "value": "significantly reduced"},
      {"measurement": "fed glucose levels", "setting": "db/db mice", "value": "lowered"},
      {"measurement": "endogenous glucose production", "setting": "[9]; [13]", "value": "without affecting"},
      {"measurement": "insulin resistance in peripheral tissues", "setting": "[9]; [13]", "value": "modestly decreased"},
      {"measurement": "increase in the glucose infusion rate required to maintain euglycemia", "setting": "[9]; 1000 mg/day for three days, patients with type 2 diabetes", "value": 13, "unit": "%"},
      {"measurement": "lowering of systolic pressure", "setting": "[10]", "value": 9, "unit": "mm Hg"},
      {"measurement": "p53 activation in fat and muscle as well as liver, aorta and cultured macrophages", "setting": "p53", "value": "p53 activation"}
    ]},
    {"compound": "anti-ATM: lissamine-tagged Morpholino antisense oligonucleotide against mouse ATM, 5′-GTGCTAGACTCATGGTTTAAGATTT-3′ (SEQ ID NO:6) (all phosphorodiamidate morpholino (PMO); lissamine tag, position not given here)", "values": [
      {"measurement": "JNK activity (phospho-JNK normalized to total JNK)", "setting": "JNK", "value": "increased"}
    ]}
  ]
}
